The record followed here is ChEMBL document CHEMBL1909046, “DrugMatrix in vitro pharmacology data”.

For one experiment, the target named is Insulin receptor (Rattus norvegicus, UniProt P15127). Type of experiment: cell membranes, Wistar, Liver, Membrane. Also: in other assays of this panel Not Active means under 50% inhibition at 10 µM.
A further experiment deals with T1, Adenosine receptor A3 (Homo sapiens, UniProt P0DMS8).
T1 sequence (P0DMS8 whole entry): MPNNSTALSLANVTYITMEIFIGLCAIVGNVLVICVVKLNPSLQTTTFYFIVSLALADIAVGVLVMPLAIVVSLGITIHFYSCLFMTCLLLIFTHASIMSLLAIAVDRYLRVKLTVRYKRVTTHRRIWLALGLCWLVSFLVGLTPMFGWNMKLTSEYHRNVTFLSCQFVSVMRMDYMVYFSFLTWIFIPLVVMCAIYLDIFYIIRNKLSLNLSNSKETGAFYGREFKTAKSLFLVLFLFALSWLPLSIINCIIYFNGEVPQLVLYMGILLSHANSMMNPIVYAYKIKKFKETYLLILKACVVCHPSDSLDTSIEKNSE
Format: cell membranes, CHO-K1, Membrane. The settings on record: for Ki: read-out: Ki.

The target in experiment [1] is T2, Neuropeptide Y receptor type 1 (Homo sapiens, UniProt P25929). Also: in other assays of this panel Not Active means under 50% inhibition at 10 µM.
T2 sequence (P25929 whole entry): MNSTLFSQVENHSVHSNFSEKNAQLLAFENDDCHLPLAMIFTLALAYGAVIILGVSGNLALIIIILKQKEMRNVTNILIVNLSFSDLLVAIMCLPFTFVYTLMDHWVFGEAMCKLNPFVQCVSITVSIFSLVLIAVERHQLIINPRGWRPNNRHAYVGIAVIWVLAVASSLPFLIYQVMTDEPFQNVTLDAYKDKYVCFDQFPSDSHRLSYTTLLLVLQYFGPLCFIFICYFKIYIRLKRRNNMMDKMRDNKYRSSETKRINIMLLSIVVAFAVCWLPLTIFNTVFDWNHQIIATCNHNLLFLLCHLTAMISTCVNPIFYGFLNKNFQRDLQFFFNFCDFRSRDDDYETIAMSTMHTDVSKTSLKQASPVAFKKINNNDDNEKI
Format: cell membranes, Membrane. The note with it: sk-n-mc.

Experiment [2] concerns the target Mitogen-activated protein kinase 3 (Homo sapiens, UniProt P27361). The experiment is described as follows: DRUGMATRIX: Protein Serine/Threonine Kinase, ERK1 enzyme inhibition (substrate: Myelin Basic Protein). Details: species or system Escherichia coli. The settings on record: Not Active = under 50% inhibition at 10 µM.
Experiment [3] addresses T3, 5-hydroxytryptamine receptor 1A (Rattus norvegicus, UniProt P19327).
T3 sequence (P19327 whole entry): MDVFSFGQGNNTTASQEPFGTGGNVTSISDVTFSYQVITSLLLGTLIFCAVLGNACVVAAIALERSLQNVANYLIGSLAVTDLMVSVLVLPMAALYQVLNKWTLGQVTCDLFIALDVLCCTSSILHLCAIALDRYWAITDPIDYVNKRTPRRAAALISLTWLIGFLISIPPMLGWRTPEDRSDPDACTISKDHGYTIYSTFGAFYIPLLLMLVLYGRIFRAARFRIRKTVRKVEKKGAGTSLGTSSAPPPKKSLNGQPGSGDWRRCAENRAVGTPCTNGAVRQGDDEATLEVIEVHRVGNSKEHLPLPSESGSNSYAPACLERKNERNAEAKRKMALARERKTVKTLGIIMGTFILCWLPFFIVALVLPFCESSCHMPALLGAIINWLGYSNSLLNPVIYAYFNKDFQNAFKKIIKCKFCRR
Format: cell membranes, CHO-K1, Membrane. The note with it: for Ki: read-out: Ki.

The target of a further experiment is Vasopressin V1a receptor (Homo sapiens, UniProt P37288). Type of experiment: cell membranes, Membrane. The note with it: hek293. Also: in other assays of this panel Not Active means under 50% inhibition at 10 µM.
For experiment [4], the target named is T4, Alpha-1A adrenergic receptor (Rattus norvegicus, UniProt P43140).
T4 sequence (P43140 whole entry): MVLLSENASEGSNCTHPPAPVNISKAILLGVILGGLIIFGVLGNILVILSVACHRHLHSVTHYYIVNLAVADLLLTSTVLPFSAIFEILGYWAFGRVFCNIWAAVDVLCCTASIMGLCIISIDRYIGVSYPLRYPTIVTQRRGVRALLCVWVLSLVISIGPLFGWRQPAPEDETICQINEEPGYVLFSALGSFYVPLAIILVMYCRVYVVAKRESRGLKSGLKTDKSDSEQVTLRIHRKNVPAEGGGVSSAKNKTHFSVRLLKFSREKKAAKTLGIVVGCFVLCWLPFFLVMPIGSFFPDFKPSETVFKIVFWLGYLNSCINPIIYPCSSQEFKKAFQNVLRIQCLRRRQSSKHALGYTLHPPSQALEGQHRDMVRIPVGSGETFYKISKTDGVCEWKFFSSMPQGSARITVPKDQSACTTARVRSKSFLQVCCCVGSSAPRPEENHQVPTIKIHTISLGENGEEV
Kind of experiment: DRUGMATRIX: Alpha-1A adrenergic receptor radioligand binding (ligand: prazosin). The settings on record: Not Active = under 50% inhibition at 10 µM; for Ki: read-out: Ki. Type of experiment: cell membranes, Wistar, Submaxillary gland, Membrane.

The target in experiment [5] is T5, Cysteinyl leukotriene receptor 1 (Homo sapiens, UniProt Q9Y271). Also: in other assays of this panel Not Active means under 50% inhibition at 10 µM.
T5 sequence (Q9Y271 whole entry): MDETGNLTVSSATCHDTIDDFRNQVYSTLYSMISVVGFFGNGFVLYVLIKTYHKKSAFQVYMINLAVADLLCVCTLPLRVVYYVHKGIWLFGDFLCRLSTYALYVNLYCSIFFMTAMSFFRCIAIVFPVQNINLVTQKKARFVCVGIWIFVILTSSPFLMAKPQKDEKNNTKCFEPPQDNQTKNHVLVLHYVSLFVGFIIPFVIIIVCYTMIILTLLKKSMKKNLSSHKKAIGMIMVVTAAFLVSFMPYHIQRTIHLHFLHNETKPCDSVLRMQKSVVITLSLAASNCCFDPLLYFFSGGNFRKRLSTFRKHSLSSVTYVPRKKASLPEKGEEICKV
Format: cell membranes, CHO-K1, Membrane.

The next experiment concerns the target Acetylcholinesterase (Homo sapiens, UniProt P22303). Kind of experiment: DRUGMATRIX: Acetylcholinesterase enzyme inhibition (substrate: acetylthiocholine). Type of experiment: cell-based, HEK293. The settings on record: Not Active = under 50% inhibition at 10 µM.

Chain of Vasopressin V1a receptor (P37288 whole entry): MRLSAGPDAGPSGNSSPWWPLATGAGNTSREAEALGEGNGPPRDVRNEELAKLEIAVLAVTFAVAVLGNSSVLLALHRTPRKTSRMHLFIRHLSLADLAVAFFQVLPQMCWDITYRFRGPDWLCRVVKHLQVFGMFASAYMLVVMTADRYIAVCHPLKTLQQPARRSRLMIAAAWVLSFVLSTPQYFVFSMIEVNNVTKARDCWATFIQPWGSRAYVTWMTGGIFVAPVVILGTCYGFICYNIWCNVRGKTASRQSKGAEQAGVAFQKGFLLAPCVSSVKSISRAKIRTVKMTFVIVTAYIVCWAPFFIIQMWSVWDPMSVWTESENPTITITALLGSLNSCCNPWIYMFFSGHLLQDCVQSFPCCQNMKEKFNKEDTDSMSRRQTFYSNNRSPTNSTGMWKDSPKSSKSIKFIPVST
Chain of Acetylcholinesterase (P22303 whole entry): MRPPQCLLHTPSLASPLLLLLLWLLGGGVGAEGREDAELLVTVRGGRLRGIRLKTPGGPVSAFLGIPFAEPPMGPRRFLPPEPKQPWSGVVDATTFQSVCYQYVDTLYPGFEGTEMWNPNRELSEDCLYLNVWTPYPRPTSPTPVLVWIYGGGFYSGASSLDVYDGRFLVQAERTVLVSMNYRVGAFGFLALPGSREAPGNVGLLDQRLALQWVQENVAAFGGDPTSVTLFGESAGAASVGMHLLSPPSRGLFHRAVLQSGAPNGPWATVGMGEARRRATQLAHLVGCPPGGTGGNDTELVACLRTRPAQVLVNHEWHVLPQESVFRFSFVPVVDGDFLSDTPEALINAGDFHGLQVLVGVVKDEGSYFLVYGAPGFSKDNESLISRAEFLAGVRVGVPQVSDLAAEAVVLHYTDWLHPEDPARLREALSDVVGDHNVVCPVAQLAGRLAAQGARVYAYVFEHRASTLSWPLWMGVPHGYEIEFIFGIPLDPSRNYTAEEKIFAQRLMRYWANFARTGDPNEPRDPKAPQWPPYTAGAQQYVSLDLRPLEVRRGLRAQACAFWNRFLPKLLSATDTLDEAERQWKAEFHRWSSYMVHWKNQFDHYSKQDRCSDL
Chain of Insulin receptor (P15127 27-759 limits assumed): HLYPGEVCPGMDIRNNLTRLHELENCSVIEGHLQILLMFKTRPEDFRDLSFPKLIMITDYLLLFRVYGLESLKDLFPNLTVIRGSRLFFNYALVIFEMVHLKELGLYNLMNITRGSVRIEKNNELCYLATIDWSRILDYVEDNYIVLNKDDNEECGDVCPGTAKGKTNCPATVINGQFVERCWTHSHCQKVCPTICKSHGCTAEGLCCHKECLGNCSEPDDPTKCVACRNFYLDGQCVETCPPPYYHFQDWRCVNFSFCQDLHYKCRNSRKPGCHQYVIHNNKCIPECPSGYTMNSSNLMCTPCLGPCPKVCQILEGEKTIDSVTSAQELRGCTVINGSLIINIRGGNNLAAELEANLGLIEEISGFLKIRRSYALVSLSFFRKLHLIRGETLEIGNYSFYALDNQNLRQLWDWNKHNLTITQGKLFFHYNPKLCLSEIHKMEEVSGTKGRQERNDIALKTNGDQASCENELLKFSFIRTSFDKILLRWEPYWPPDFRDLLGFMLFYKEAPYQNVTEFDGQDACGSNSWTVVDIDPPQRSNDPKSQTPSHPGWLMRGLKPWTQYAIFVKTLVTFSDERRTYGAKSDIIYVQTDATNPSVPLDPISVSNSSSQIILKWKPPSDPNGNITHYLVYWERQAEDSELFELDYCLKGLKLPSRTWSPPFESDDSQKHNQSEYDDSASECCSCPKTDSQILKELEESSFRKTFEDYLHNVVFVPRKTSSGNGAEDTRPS
Chain of Insulin receptor (P15127 764-1383 limits assumed): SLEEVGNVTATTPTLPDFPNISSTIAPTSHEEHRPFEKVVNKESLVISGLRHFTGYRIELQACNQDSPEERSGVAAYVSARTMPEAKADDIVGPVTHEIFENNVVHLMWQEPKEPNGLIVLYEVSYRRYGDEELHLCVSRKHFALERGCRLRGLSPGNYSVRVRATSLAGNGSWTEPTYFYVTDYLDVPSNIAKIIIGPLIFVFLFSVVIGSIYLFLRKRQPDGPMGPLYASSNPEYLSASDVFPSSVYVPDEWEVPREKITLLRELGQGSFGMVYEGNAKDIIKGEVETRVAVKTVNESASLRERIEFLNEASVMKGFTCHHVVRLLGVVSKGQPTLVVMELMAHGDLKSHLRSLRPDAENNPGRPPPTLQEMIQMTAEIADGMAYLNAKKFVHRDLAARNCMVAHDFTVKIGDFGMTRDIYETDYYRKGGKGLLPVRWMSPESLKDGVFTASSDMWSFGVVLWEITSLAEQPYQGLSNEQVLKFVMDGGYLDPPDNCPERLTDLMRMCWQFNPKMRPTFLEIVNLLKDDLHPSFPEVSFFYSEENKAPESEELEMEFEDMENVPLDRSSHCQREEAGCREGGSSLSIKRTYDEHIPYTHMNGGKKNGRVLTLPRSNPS
Chain of Mitogen-activated protein kinase 3 (P27361 whole entry): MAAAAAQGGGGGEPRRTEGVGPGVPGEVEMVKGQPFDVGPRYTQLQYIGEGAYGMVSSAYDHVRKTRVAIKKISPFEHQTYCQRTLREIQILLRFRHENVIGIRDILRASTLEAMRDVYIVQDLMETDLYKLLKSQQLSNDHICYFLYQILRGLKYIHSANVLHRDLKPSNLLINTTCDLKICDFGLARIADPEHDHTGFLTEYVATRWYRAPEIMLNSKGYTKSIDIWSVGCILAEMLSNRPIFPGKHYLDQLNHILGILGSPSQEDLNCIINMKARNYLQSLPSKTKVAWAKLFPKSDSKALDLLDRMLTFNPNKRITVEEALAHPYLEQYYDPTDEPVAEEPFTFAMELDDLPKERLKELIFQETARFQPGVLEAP

What is called IC50 is the concentration that inhibits the measured activity by half. For the compound `CCOC(=O)[C@H](CCc1ccccc1)N[C@@H](C)C(=O)N1[C@H](C(=O)O)C[C@@H]2CCC[C@@H]21`, the IC50 result (on Insulin receptor; against Adenosine receptor A3 (cho-k1); in [1]; in [2]; in experiment [3] (cho-k1); at Vasopressin V1a receptor) was “Not Active” in each case. Besides, the IC50 result (in experiment [4]; in [5] (cho-k1); on Acetylcholinesterase (hek293)) was “Not Active” each time.
Take `CC(C)(C)NC(=O)[C@@H]1CN(Cc2cccnc2)CCN1C[C@@H](O)C[C@@H](Cc1ccccc1)C(=O)N[C@H]1c2ccccc2C[C@H]1O.O`: the IC50 entry (against Insulin receptor; on Adenosine receptor A3 (cho-k1); in experiment [1]; in [2]; in experiment [3] (cho-k1); against Vasopressin V1a receptor) was “Not Active” each time. Besides, the IC50 result (in experiment [4]; in experiment [5] (cho-k1); at Acetylcholinesterase (hek293)) was “Not Active” in each case.
On to `CC1(C)[C@H]2CC[C@]1(C)C(=O)C2` [(-)-CAMPHOR], for which the IC50 entry (on Insulin receptor; against Adenosine receptor A3 (cho-k1); in experiment [1]; in experiment [2]; in experiment [3] (cho-k1); at Vasopressin V1a receptor) was “Not Active” each time. Also, the IC50 result (in experiment [4]; in experiment [5] (cho-k1); on Acetylcholinesterase (hek293)) was “Not Active” each time.
As to `CC(C)(C)NCC(O)c1ccc(O)c(CO)c1` (stereo unspecified) [ALBUTEROL], the IC50 result (at Insulin receptor; at Adenosine receptor A3 (cho-k1); in [1]; in [2]; in experiment [3] (cho-k1); at Vasopressin V1a receptor) was “Not Active” in each case. Besides, the IC50 result (in [4]; in [5] (cho-k1); against Acetylcholinesterase (hek293)) was “Not Active” in each case.
In general, Ki refers to the dissociation constant of the complex between target and ligand, obtained from inhibition or displacement. Regarding `COc1ccc(CCN2CCC(Nc3nc4ccccc4n3Cc3ccc(F)cc3)CC2)cc1` [ASTEMIZOLE], the IC50 entry is “Not Active” against Insulin receptor; “Not Active” in [1]; “Not Active” in experiment [2]; 0.767 µM in experiment [3] (read-out: IC50); “Not Active” on Vasopressin V1a receptor; 0.024 µM in experiment [4] (read-out: IC50). The IC50 entry (in experiment [5] (cho-k1); at Acetylcholinesterase (hek293)) was “Not Active” in each case. For the same compound, the Ki in [3] amounted to 0.438 µM; in [4] it was 0.0099 µM.
Regarding `CN(C)CCCN1c2ccccc2CCc2ccc(Cl)cc21` [CLOMIPRAMINE], the IC50 result (at Insulin receptor; at Adenosine receptor A3 (cho-k1); in experiment [1]; in experiment [2]; in experiment [3] (cho-k1); on Vasopressin V1a receptor) was “Not Active” in each case. Also, the IC50 result (in experiment [5] (cho-k1); at Acetylcholinesterase (hek293)) was “Not Active” each time.
Consider `Clc1ccccc1C(c1ccccc1)(c1ccccc1)n1ccnc1` [CLOTRIMAZOLE], for which the IC50 result at Insulin receptor was “Not Active”; on Adenosine receptor A3 (read-out: IC50), 4.75 µM; in experiment [1], “Not Active”; in [2], “Not Active”; in experiment [3] (read-out: IC50) it was 17.7 µM; at Vasopressin V1a receptor, “Not Active”. Besides, the IC50 stood at 26.3 µM in [4] (read-out: IC50), 33.2 µM in experiment [5] (read-out: IC50) and 19.4 µM at Acetylcholinesterase (read-out: IC50). Further, the Ki on Adenosine receptor A3 turned out to be 2.69 µM; in experiment [3], 10.1 µM; in [4] it was 10.7 µM; in experiment [5] (read-out: Ki), 16.6 µM.
For the compound `O=C(CCCN1CCC(O)(c2ccc(Cl)cc2)CC1)c1ccc(F)cc1` [HALOPERIDOL], the IC50 entry (at Insulin receptor; at Adenosine receptor A3 (cho-k1); in experiment [1]; in experiment [2]; in [3] (cho-k1); against Vasopressin V1a receptor) was “Not Active” each time. Moreover, the 50% inhibitory concentration (IC50) entry (in experiment [5] (cho-k1); against Acetylcholinesterase (hek293)) was “Not Active” each time.
Turning to `Oc1c(I)cc(I)c2cccnc12` [IODOQUINOL], the IC50 result is “Not Active” against Insulin receptor; 0.933 µM on Adenosine receptor A3 (read-out: IC50); “Not Active” in [1]; 5.26 µM in experiment [2] (read-out: IC50); “Not Active” in [3] (cho-k1); “Not Active” against Vasopressin V1a receptor. Also, the IC50 entry (in experiment [4]; in [5] (cho-k1); on Acetylcholinesterase (hek293)) was “Not Active” in each case. The inhibition constant (Ki) on Adenosine receptor A3 stood at 0.527 µM.
For `CN1CCN2c3ccccc3Cc3ccccc3C2C1` (stereo unspecified) [MIANSERIN], the half-maximal inhibitory concentration (IC50) result was “Not Active” against Insulin receptor; “Not Active” on Adenosine receptor A3 (cho-k1); “Not Active” in experiment [1]; “Not Active” in experiment [2]; 0.872 µM in experiment [3] (read-out: IC50); “Not Active” against Vasopressin V1a receptor. For the same compound, the half-inhibitory concentration (IC50) entry (in [5] (cho-k1); on Acetylcholinesterase (hek293)) was “Not Active” each time. For the same compound, the Ki in experiment [3] is 0.498 µM.
On to `CC(C)(O)c1ccccc1CC[C@@H](SCC1(CC(=O)O)CC1)c1cccc(/C=C/c2ccc3ccc(Cl)cc3n2)c1` [MONTELUKAST], for which the IC50 result (at Insulin receptor; in experiment [1]; in experiment [2]; in experiment [3] (cho-k1); against Vasopressin V1a receptor; in experiment [4]) was “Not Active” in each case. The half-inhibitory concentration (IC50) entry against Acetylcholinesterase (hek293) was “Not Active”.
`COC(=O)C1=C(C)NC(C)=C(C(=O)OC)C1c1ccccc1[N+](=O)[O-]` [NIFEDIPINE]: the 50% inhibitory concentration (IC50) result (against Insulin receptor; in [1]; in experiment [2]; in experiment [3] (cho-k1); against Vasopressin V1a receptor; in [4]) was “Not Active” in each case. In addition, the IC50 result (in [5] (cho-k1); against Acetylcholinesterase (hek293)) was “Not Active” in each case.
In the case of `COC(=O)[C@@H]1[C@H]2C[C@H]3c4[nH]c5ccccc5c4CCN3C[C@@H]2CC[C@@H]1O` [YOHIMBINE], the IC50 result (at Insulin receptor; on Adenosine receptor A3 (cho-k1); in experiment [1]; in experiment [2]; at Vasopressin V1a receptor; in [5] (cho-k1)) was “Not Active” throughout. Also, on Acetylcholinesterase (hek293), the IC50 entry is given as “Not Active”.
